Reference: PubChem BioAssay (NCI)
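These data come from cells grown in 96-well plates and exposed to compound for 48 hours at five concentrations. The concentration for full growth arrest is given as TGI.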 *1 amine or outer side, *2 acyl side, *3 side chain or, on linkers, in order; H or OH if unused. Where a SMILES comes first, the peptide text is derived from it. [ ]: non-standard residue; d: D form. The star is where a group is joined. X31 = CC(=O)N(C)SCC(N[*:1])C(=O)[*:2]; X47 = CC(=O)N(C)SCC(N*)/C(O)=N\O; Cbz = O=C(OCc1ccccc1)*; Bn = c1ccc(C*)cc1; For = O=C*

Legend:
Assay in all cases: inhibition of tumour cell growth, NCI panel, 48 h
DU-145 prostate = tested on: DU-145 prostate
HCT-116 colon = tested on: HCT-116 colon
HL-60(TB) leukemia = tested on: HL-60(TB) leukemia
HS 578T breast = tested on: HS 578T breast
IGROV1 ovarian = tested on: IGROV1 ovarian
NCI-H522 lung = tested on: NCI-H522 lung
NCI/ADR-RES ovarian = tested on: NCI/ADR-RES ovarian
OVCAR-3 ovarian = tested on: OVCAR-3 ovarian
RXF 393 renal = tested on: RXF 393 renal
SF-539 CNS = tested on: SF-539 CNS
SK-MEL-5 melanoma = tested on: SK-MEL-5 melanoma
SN12C renal = tested on: SN12C renal
SNB-75 CNS = tested on: SNB-75 CNS
T-47D breast = tested on: T-47D breast
TK-10 renal = tested on: TK-10 renal
UACC-62 melanoma = tested on: UACC-62 melanoma

SMILES | TGI (DU-145 prostate) | TGI (HCT-116 colon) | TGI (HL-60(TB) leukemia) | TGI (HS 578T breast) | TGI (IGROV1 ovarian) | TGI (NCI-H522 lung) | TGI (NCI/ADR-RES ovarian) | TGI (OVCAR-3 ovarian) | TGI (RXF 393 renal) | TGI (SF-539 CNS) | TGI (SK-MEL-5 melanoma) | TGI (SN12C renal) | TGI (SNB-75 CNS) | TGI (T-47D breast) | TGI (TK-10 renal) | TGI (UACC-62 melanoma)
COc1ccc(Oc2cccc(/C=C3/C(=O)Nc4ccccc43)c2)cc1 | 27.1 µM | 15.2 µM | 12.5 µM | 45.8 µM | 20.9 µM | 19.6 µM | 17.8 µM | 21.6 µM | 15.7 µM | 33.1 µM | 11.3 µM | 22.8 µM | 28.3 µM | 9.75 µM | 29.9 µM | 
Nc1cc2c3c(c1)Oc1cc(N)cc4c1C3c1c(cc(N)cc1O4)O2 | 46.7 µM | 75.5 µM | 52.6 µM | > 100 µM | > 44.9 µM | 45.5 µM | 26.9 µM | 51.6 µM | 29 µM | 46.2 µM | 27.3 µM | 49.2 µM | > 48.8 µM | > 93.2 µM | > 100 µM | > 69.6 µM
C/C(CC/C(C)=N/O)=N\O | > 100 µM | > 100 µM | > 100 µM | > 100 µM | > 100 µM | > 100 µM | > 100 µM | > 100 µM | > 100 µM | > 100 µM | > 100 µM | > 100 µM | > 100 µM | > 100 µM | > 100 µM | > 100 µM
CO/N=C(\C)c1ccc(Nc2c3ccccc3nc3occc23)cc1 | 10.3 µM | 12.1 µM | 2.23 µM | 10.3 µM | 12.4 µM | 0.311 µM | 4.75 µM | 2.85 µM | 0.877 µM | 2.28 µM | 6.53 µM | 22.6 µM | 3.29 µM | 19.2 µM | 18.4 µM | 16.3 µM
O=P1(C(O)/C=C/c2ccccc2)N(Cc2ccccc2)[C@H](c2ccccc2)[C@@H](c2ccccc2)N1Cc1ccccc1 (stereo partly specified) | > 100 µM | > 100 µM | 36.3 µM | > 90.2 µM | > 44.6 µM | 59.2 µM | > 100 µM | > 93.1 µM | > 100 µM | > 100 µM | 41.2 µM | > 100 µM | > 83.6 µM | > 100 µM | > 100 µM | > 100 µM
Cc1c(C#N)c2nnn(-c3ccc(Cl)cc3)c(=O)n2c1-c1ccccc1 | 8.44 µM | 10.9 µM | > 57.3 µM | > 56.3 µM | 16.9 µM | 0.207 µM | 16 µM | 0.772 µM | 3.76 µM | 0.6 µM | 1.3 µM | 3.85 µM | 39.7 µM | 45.2 µM | 55 µM | 18.5 µM
CC(=O)N(C)SCC(NC(=O)C(Cc1ccccc1)NC(=O)OCc1ccccc1)C(=O)NC(Cc1ccccc1)C(=O)NC(Cc1cn(C=O)c2ccccc12)C(=O)NC(CCCCNC(=O)OCc1ccccc1)C(=O)NC(C(=O)NC(CSN(C)C(C)=O)/C(O)=N\O)C(C)OCc1ccccc1 (stereo unspecified) (Cbz-F[X31]FW(For)K(Cbz)T(Bn)-X47; configuration not given here) | > 100 µM | > 100 µM | > 100 µM | > 100 µM | > 100 µM | > 100 µM | > 100 µM | > 100 µM | > 100 µM | > 100 µM | > 100 µM | > 100 µM | > 100 µM | > 100 µM | > 100 µM | > 100 µM
CCOC(=O)C1(C(N)=O)C(=O)c2ccncc2C1=O (stereo unspecified) | > 100 µM | > 100 µM | > 100 µM | > 100 µM | > 100 µM | > 100 µM | > 100 µM | > 100 µM | > 100 µM | > 100 µM | > 100 µM | > 100 µM | > 100 µM | > 100 µM |  | > 100 µM
COc1ccccc1/C=C/C1=NN(c2cccc(S(=O)(=O)O)c2)C2(C1)SCC(=O)N2c1nc2ccccc2s1 (stereo unspecified) | > 100 µM | > 100 µM | > 100 µM | > 100 µM | > 100 µM | > 100 µM | > 100 µM |  | > 100 µM | > 100 µM | > 100 µM | > 100 µM | > 100 µM | 71.8 µM | > 100 µM | > 100 µM
NC(Cc1ccc(S(=O)(=O)O)cc1)C(=O)NC(CCCCNC(=O)NCCCCC(NC(=O)C(N)Cc1ccc(S(=O)(=O)O)cc1)C(=O)NC(Cc1ccc(S(=O)(=O)O)cc1)C(=O)O)C(=O)NC(Cc1ccc(S(=O)(=O)O)cc1)C(=O)O (stereo unspecified) | > 100 µM | > 100 µM | > 100 µM | > 100 µM | > 100 µM | > 100 µM | > 100 µM | > 100 µM | > 100 µM | > 100 µM | > 100 µM | > 100 µM | > 100 µM | > 100 µM | > 100 µM | > 100 µM
CCCCCCCC1C(C)c2c([nH]c3ccccc23)C2C(=O)N(c3ccc(OC)cc3)C(=O)C21 (stereo unspecified) | > 10 µM | 3.61 µM | 3.73 µM | 4.88 µM | > 10 µM | > 10 µM | 3.02 µM | 6.71 µM | 8.14 µM | > 7.09 µM | > 10 µM | > 5.95 µM | 3.91 µM | > 10 µM | 5.37 µM | > 10 µM
Brc1ccc2[nH]cc(-c3csc(-c4ccccn4)n3)c2c1 | > 86.5 µM | 50.9 µM | > 100 µM | > 100 µM | > 88.8 µM | > 100 µM | > 100 µM | > 38 µM | 18.7 µM | > 100 µM | 55.9 µM | 30.7 µM | 36.4 µM | > 100 µM | > 100 µM | 
COc1cc2c(/C=C3/C(=O)N(C)c4ccccc43)c(Cl)[nH]c2cc1C | 3.44 µM | 7.02 µM | 0.666 µM | > 100 µM | 2.7 µM | 0.518 µM | 2.67 µM | 0.929 µM | 70.5 µM | 0.0807 µM | 7.41 µM | 7.99 µM | 46.2 µM | > 100 µM | 5.16 µM | > 52.3 µM
CC1=NCCN=C(C)C1N=Nc1ccc2nc(C)[nH]c2c1 | 30.9 µM | 38 µM | 9.33 µM | 57.5 µM | 70.7 µM | 61.8 µM | 47.9 µM | 44.3 µM | 40.1 µM | 42.5 µM |  | 30.9 µM | 33.1 µM | 47.5 µM | 42.9 µM | 31.5 µM
COc1cc(-c2cn(S(=O)(=O)c3ccc(C)cc3)c3ccccc23)nc(-c2cn(S(=O)(=O)c3ccc(C)cc3)c3ccccc23)n1 | 1.85 µM | > 33.8 µM | 5.24 µM | > 100 µM |  | 0.506 µM | > 100 µM | > 100 µM | > 100 µM | 0.592 µM |  | > 100 µM | > 100 µM | > 100 µM | > 100 µM | > 100 µM
Cc1ccc(-c2nc(C)c(C(=O)Nc3ccc(Cl)cc3)s2)cc1 | > 100 µM | 41.2 µM | > 100 µM | 62.1 µM | 82.4 µM | > 100 µM | > 100 µM | 98.6 µM |  | > 100 µM | 41.7 µM | > 100 µM | 28.3 µM | > 100 µM | 38.9 µM | 45.8 µM
CC1CC(C)C(O)C(C2CC(CC(=O)NC3CCCCC3)CC(=O)O2)C1 (stereo unspecified) | > 100 µM | > 100 µM | > 100 µM | > 100 µM | > 100 µM | > 100 µM | > 100 µM | > 100 µM | > 100 µM | > 100 µM | > 100 µM | > 100 µM | > 100 µM | > 100 µM | > 100 µM | 
NC(=O)c1nnc2ccc(F)cc2c1N | > 100 µM | > 100 µM | > 100 µM | > 100 µM | > 100 µM | > 100 µM | > 100 µM | > 100 µM |  | > 100 µM | > 100 µM | > 100 µM | > 100 µM | > 100 µM | > 100 µM | > 100 µM
CC(=N\N)/C(C)=N/N=C(C)/C(C)=N/N=C(C)/C(C)=N/N=C(C)/C(C)=N/N | > 100 µM | > 100 µM | > 100 µM | > 100 µM | > 100 µM | > 100 µM | > 100 µM | > 100 µM | > 100 µM | > 100 µM | > 100 µM | > 100 µM | > 100 µM | > 100 µM | > 100 µM | 
Cc1ccc(S(=O)(=O)N2CCCN(S(=O)(=O)c3ccc(C)cc3)CCN(S(=O)(=O)c3ccc(C)cc3)CCCSCC2)cc1 | > 100 µM | > 100 µM | > 100 µM | > 100 µM | > 100 µM |  | > 100 µM | > 100 µM | > 100 µM | > 100 µM | > 100 µM | > 100 µM | > 100 µM | > 100 µM |  | > 100 µM
CC(=O)Nc1ccc(Nc2cc(=O)[nH]c(=O)[nH]2)cc1 | > 100 µM | > 100 µM | > 100 µM | > 100 µM | > 100 µM |  | > 100 µM | > 100 µM | > 100 µM | > 100 µM | > 100 µM | > 100 µM | > 100 µM | > 100 µM | > 100 µM | 
